One series relates to ATM^+/+ apoE^−/− mice. In words: Atherosclerosis by the en face technique in Western diet-fed mice. The class given is in vivo, mouse. The conditions noted are these: 7 mg/kg/week i.p., 8 weeks Western diet, vs saline.
The subject of series [1] is ATM^+/+ apoE^−/− and ATM^−/− apoE^−/− mice. In words: Tail-cuff systolic and diastolic blood pressure in Western diet-fed mice. The class given is in vivo, mouse. The following applies: 7 mg/kg/week, 8 weeks Western diet, vs saline.
Protocol: Systolic blood pressure (SBP) and diastolic blood pressure (DBP) were measured after 8 weeks of Western diet feeding in ATM^+/+, ATM^+/−, and ATM^−/− mice. […] A plethysmography device (such as those supplied by Kent Scientific, Litchfield, Conn.) was used for tail cuff blood pressure determinations in acclimated, warmed mice performed by a technician blinded to treatment status, according to the manufacturer's instructions. Results were reported as the mean of 5-8 measurements on each day of 3 consecutive days.
Systolic and diastolic blood pressures were measured over several days in conscious mice using a tail-cuff system (Kent Scientific, Litchfield, Conn.) as described (Bernal-Mizrachi et al., 2003; Nat. Med. 9:1069-1075). Animals were habituated to the blood pressure apparatus for several days before data were collected. Five to eight measurements were recorded for each mouse at each of three daily sessions. Results are presented as the mean of those measurements on consecutive days.
In series [2] the test system is ATM^+/+apoE^−/− and ATM^−/−apoE^−/− mice. In words: Intraperitoneal glucose tolerance test in Western diet-fed mice. The class given is in vivo, mouse.
Protocol: For glucose tolerance and insulin tolerance tests, mice were fasted and injected with 10% D-glucose (1 g/kg) or human regular insulin (0.75 units/kg body weight, Eli Lilly and Co., Indianapolis, Ind.) in procedures separated by at least one week. Tail vein blood (5-10 µl) was assayed for glucose at 0, 30, 60, and 120 minutes. Blood glucose was assayed using a glucose meter (Hemocue, Mission Viejo, Calif. or Becton Dickinson, San Jose, Calif.). The area under the glucose and insulin curves (AUC) during the OGTT and ITT were calculated using the formula: 0.25 (fasting value)+0.5 (½ h value)+0.75 (1 h value)+0.5 (2 h value).
The glucose tolerance and insulin tolerance tests were performed on mice that were fasted for 12 hours and then injected with 10% D-glucose (1 g/kg) or human regular insulin (0.75 units/kg body weight, Eli Lilly and Co., Indianapolis, Ind.) in procedures separated by at least one week. Tail vein blood (5-10 μl) was assayed for glucose at 0, 30, 60, and 120 minutes. Blood glucose was assayed using a glucose meter (Hemocue, Mission Viejo, Calif.). The area under the glucose and insulin curves (AUC) during the OGTT and ITT were calculated using the formula: 0.25 (fasting value)+0.5 (½ h value)+0.75 (1 h value)+0.5 (2 h value), as described by Haffner et al., N. Engl.
(§5) The mice were then fed the Western-type diet as described.
A short description of series [3]: Body weight, metabolic rate (indirect calorimetry) and fasting serum lipids in mice. The class given is in vivo, mouse. The conditions noted are these: ATM^+/+ apoE^−/− mice, 7 mg/kg/week, 4 and 8 weeks Western diet.
Protocol: as §5
All of these experiments were performed using ATM^+/+ apoE^−/− littermate mice beginning at the age of 8 weeks.
Serum is generally obtained after a four hour fast and assayed for routine chemistries (glucose, triglycerides, cholesterol, and non-esterified fatty acids) using an automated plate reader connected to a computer, as described by Li et al., Nat.
A further series concerns p53. The conditions noted are these: low dose chloroquine, 3.5 mg/kg per injection i.p. An excerpt: (§1) However, low level activation of ATM as detected with an antibody that recognizes serine phosphorylation at residue 1981, may also be used in the assay.
Another series concerns lipoprotein lipase (LPL). In words: LPL enzyme activity in peritoneal macrophages from treated mice. The class given is in vivo, mouse. The conditions noted are these: ATM^+/+ mice treated systemically, vs saline.
A further series deals with ob/ob mice. In words: Blood glucose and fasting insulin in ob/ob mice. In kind it is in vivo, mouse. As for the experimental part:
(§2) Two month old male db/db (Lepr^db; LEPR-deficient mice having excess adiposity) mice and ob/ob (Lep^ob, genetically obese) mice were purchased from Harlan (Indianapolis, Ind.) and the Jackson Laboratory, respectively.
(§3) Blood glucose in male db/db mice were treated with either CHQ or saline. Baseline represents the average fed blood glucose levels of the 12 db/db mice.

The test system of another series is db/db mice. In words: Fed blood glucose in db/db mice. In kind it is in vivo, mouse. The conditions noted are these: male db/db mice, vs baseline and saline. As to the method:
as §2, §3

In series [4] the test system is subjects with the metabolic syndrome. In words: Hyperinsulinemic-euglycemic clamp in subjects with the metabolic syndrome. In kind it is in vivo, human. As to the method: (§4) Glucose and insulin tolerance tests are generally performed using D-glucose (1 g/kg) and insulin (0.75 U/kg), which are administered in separate procedures followed by serial measurements of blood glucose. If necessary, an oral glucose tolerance test (OGTT) will be performed the day after completing the clamp. After an overnight fast, an intravenous catheter will be placed, baseline labs will be obtained, 75 g of glucose will be consumed, and blood glucose, insulin, C peptide, and glucagon will be determined every half hour for 2 hours.
Two subjects with the metabolic syndrome have completed the protocol. The mean glucose infusion rate to maintain euglycemia (90 mg/dl) at steady state during the first stage of the clamp (using an insulin infusion rate of 15 mU/m^2/min) for these two subjects was determined.
Clamps are performed with infusion of stable isotope-labeled glucose to allow the determination of both glucose disposal rates and hepatic glucose output during hyperinsulinemic-euglycemic clamps in subjects with the metabolic syndrome. The results are presented as the mean for two subjects.

The test system is the same in series [5]. In words: Fasting lipids and lipoproteins in subjects with the metabolic syndrome. The class given is in vivo, human. The following applies: for Total Cholesterol / HDL cholesterol / LDL cholesterol / Triglycerides: 3 weeks; for Total Cholesterol: average of two subjects, placebo 206; for HDL cholesterol: placebo 47; for LDL cholesterol: placebo 132; for Triglycerides: placebo 139.

For series [6] the test system is unchanged. In words: Ambulatory blood pressure, glucose tolerance test and body weight in subjects with the metabolic syndrome. In kind it is in vivo, human. The conditions noted are these: two subjects. As to the method:
as §4

Series [7] has as its system ApoE-null model mice lacking a single allele of ATM. In words: ApoE-null mice lacking a single allele of ATM on high fat diet, chloroquine treatment. The class given is in vivo, mouse. The following applies: 7 mg/kg per week.
The test system of a further series is retina. The conditions noted are these: several groups; cited from earlier work.
The subject of series [8] is patients with type 2 diabetes. The conditions noted are these: cited from earlier work.
The target in series [9] is T1, ATM (Homo sapiens, UniProt Q13315). In words: ATM activation in cultured cells. In kind it is cell-based. The conditions noted are these: low concentrations. On the set-up: endogenous in cells.
Source text: as §1
Target sequence in this assay (Q13315 whole entry, species assumed): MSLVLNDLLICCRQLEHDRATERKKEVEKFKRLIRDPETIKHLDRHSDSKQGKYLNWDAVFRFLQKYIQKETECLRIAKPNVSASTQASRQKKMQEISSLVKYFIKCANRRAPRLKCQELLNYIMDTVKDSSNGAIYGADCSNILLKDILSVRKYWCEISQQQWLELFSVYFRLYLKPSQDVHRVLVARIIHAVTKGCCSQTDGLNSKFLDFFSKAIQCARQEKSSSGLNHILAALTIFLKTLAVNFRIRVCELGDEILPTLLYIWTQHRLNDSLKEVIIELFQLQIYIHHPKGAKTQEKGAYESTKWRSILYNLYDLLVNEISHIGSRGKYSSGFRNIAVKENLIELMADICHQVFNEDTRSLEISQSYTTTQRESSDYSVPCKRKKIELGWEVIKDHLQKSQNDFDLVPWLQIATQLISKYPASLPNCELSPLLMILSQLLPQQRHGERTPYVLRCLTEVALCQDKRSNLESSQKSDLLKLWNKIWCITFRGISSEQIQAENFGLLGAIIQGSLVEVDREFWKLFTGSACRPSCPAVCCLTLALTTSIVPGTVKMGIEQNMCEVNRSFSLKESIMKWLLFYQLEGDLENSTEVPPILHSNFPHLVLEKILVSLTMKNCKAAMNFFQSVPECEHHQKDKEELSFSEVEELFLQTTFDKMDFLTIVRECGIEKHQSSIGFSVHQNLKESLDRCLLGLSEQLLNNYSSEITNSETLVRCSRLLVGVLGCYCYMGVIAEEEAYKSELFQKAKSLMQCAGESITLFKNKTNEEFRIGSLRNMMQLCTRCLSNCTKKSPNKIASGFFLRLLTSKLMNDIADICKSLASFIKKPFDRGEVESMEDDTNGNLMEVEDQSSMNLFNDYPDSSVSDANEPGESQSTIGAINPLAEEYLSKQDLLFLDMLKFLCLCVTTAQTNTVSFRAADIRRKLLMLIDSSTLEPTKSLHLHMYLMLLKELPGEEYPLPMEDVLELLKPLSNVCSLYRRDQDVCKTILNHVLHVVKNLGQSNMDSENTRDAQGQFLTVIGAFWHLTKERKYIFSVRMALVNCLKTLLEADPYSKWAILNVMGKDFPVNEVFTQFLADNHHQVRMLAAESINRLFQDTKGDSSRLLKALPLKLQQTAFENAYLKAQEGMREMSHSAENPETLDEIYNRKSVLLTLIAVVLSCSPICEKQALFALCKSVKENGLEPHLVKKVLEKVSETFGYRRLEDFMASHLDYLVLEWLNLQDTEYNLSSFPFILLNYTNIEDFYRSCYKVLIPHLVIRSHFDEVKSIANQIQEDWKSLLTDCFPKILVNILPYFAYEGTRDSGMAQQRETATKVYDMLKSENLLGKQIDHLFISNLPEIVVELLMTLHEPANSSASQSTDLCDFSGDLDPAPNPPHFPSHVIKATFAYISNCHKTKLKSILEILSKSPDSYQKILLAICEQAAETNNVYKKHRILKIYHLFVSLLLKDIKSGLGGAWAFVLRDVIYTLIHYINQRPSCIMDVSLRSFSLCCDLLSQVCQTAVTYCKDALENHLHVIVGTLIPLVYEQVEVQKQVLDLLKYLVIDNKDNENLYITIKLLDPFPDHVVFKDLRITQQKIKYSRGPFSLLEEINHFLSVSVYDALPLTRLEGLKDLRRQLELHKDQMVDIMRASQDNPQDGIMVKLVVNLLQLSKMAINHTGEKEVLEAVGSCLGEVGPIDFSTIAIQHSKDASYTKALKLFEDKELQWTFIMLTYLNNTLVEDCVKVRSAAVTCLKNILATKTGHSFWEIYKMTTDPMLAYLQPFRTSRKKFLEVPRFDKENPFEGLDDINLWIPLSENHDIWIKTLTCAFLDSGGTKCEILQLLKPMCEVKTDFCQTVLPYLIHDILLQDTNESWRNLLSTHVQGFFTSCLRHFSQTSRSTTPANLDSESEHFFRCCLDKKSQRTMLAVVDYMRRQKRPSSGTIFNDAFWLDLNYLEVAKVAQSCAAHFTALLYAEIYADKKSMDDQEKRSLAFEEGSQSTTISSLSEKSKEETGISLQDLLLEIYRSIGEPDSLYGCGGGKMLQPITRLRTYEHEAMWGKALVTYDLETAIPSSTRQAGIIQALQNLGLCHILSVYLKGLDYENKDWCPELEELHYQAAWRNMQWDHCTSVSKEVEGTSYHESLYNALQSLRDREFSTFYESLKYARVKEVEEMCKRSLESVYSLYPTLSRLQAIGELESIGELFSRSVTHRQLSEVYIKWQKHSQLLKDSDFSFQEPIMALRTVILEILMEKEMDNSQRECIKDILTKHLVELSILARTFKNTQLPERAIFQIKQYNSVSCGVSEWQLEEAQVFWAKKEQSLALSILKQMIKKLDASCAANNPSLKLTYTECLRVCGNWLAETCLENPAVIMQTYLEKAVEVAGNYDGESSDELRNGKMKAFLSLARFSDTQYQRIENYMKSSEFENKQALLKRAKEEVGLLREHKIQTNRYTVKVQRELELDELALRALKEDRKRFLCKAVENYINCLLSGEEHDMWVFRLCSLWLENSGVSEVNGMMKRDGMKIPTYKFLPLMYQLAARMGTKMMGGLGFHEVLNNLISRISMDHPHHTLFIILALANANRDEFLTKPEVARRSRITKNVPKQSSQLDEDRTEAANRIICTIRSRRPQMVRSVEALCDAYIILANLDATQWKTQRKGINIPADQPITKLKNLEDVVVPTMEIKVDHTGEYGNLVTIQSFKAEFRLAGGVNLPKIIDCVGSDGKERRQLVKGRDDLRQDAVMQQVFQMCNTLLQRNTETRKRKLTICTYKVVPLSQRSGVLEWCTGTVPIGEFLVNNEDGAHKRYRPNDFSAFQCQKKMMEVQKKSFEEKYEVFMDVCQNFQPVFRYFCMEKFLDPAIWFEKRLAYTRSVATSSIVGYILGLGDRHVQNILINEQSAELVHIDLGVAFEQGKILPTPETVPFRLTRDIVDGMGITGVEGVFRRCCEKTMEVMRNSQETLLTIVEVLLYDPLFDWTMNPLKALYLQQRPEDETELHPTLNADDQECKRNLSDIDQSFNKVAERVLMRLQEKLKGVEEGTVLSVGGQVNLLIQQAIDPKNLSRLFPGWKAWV

Series [10] addresses T1, ATM. In words: Activated ATM (Ser1981P-ATM Western blot) in monocytes of treated subjects. In kind it is in vivo. Details: lysates were immunoprecipitated using a total ATM antibody (D1611); endogenous in cells; host or cells: adherent peripheral blood monocytes from human subjects with metabolic syndrome. As to the method:
Anticoagulated blood was added to commercially available tubes containing Histopaque, and mononuclear cells were collected after centrifugation. These cells were subjected to a brief second spin using a discontinuous sucrose gradient to remove platelets (which can interfere with the adherence of monocytes to culture dishes), then the mononuclear cells were placed in tissue culture dishes. Two hours later, lymphocytes were washed away, and adherent monocytes were collected and frozen in appropriate media so that cells from different limbs of the protocol can subsequently be studied in the same assays. […] For activated ATM determinations, lysates were immunoprecipitated using a total ATM antibody (D1611). The immunoprecipitated samples were blotted for activated ATM using a monoclonal antibody recognizing Ser1981P-ATM. The gels included a positive control of 293 cells treated with camptothecin. Total lysates were used to blot activated p53 using a polyclonal antibody to Ser15P-p53 (cell signaling). To confirm the p53 data, total lysates were tested using an ELISA-based p53 DNA binding assay (TransAM p53 activity assay from Active Motif).
Target sequence in this assay (Q13315 whole entry): as the sequence (Q13315 whole entry, species assumed) above

In the next series the test system is JNK. In words: Phospho-JNK ELISA in cultured aortic smooth muscle cells after antisense transfection. The class given is cell-based, mouse. The following applies: aortic smooth muscle cells from ATM^+/+apoE^−/− mice, 1.4 μmol/L, 72 hours. As for the experimental part:
When cultured aortic smooth muscle cells were treated with a morpholino antisense oligonucleotide to ATM, JNK activity was increased, providing direct evidence that interfering with ATM expression induces JNK activity, a mediator of insulin resistance. Analysis of phospho-JNK in vascular smooth muscle cells cultured from ATM^+/+apoE^−/− mice. Primary aortic smooth muscle cells were transfected with an anti-ATM oligonucleotide, or a control oligonucleotide or the vehicle ethoxylated polyethylenimine solution only. Cells were assayed by ELISA for phospho-JNK and total JNK as measured in U/ml/well of a 96-well plate. […] Increased expression of phospho-JNK was detected in tissues involved in systemic insulin action in all three ATM genotypes in apoE^−/− mice, as determined by analysis of Western blots for fat, skeletal muscle and liver. Comparisons were made between ATM-deficient and ATM wild-type animals.
Most of the mass of the aorta is composed of smooth muscle cells. Smooth muscle cells were cultured from the aortas of apoE^−/− mice by the explant technique as described by Weng et al., Proc. Natl. Acad. Sci. USA, 2003, 100:6730-6735. […] Successful transfection was confirmed by fluorescence microscopy and phospho-JNK and total JNK were assayed 72 hours later using a cell-based ELISA kit. […]
For orientation: ELISA stands for enzyme-linked immunosorbent assay.

Setting [11] is: 80 mg/day, first stage of clamp, mean of two subjects.
The mark [12] stands for this setting: 80 mg/day for three weeks, two subjects.
Setting [13] is: 1000 mg/day for three days (Powrie et al.).

These results are taken from patent US8440695B2 (St Jude Children's Research Hospital, priority 2005, dated 2013).

“Also recorded” adds a separate entry of the source.

Protocol for ATM^+/+ apoE^−/− mice: Atherosclerosis was measured using the en face or aortic origin technique. For the former, pinned aortas were imaged with a digital camera and analyzed by using an image-processing program. The percentage of involvement of the intimal surface area is reported for the arch (encompassing the surface from the aortic valve to the left subclavian artery), the thoracic aorta (extending to the final intercostal artery), and the abdominal aorta (to the ileal bifurcation). For the aortic origin technique, mean lesion size for each animal was quantified by the degree of lipid staining of cross-sections of aortic tissue as described. Anesthetized mice were exsanguinated, the heart and aortic arch were perfused, then tissues were removed en bloc and frozen immediately in tissue freeze medium. For each sample, 64 sections were made on a cryostat beginning just caudal to the aortic sinus and extending into the proximal aorta at 10 μm intervals. Slides were fixed with 60% isopropanol and stained with Oil Red O. For each heart, lesions in eight sections at 80 μm intervals were quantified using image analysis software calibrated using a hemocytometer grid.
as §5
The quantification of aortic lesions involved cleaning the aortas and pinning them on a wax matrix with the intimal surface facing upward (en face). Images were captured with a digital camera, edited for artifacts, and data were reported as the percent involvement of the arch (encompassing the surface from the aortic valve to the left subclavian artery), thoracic aorta (extending to the last intercostal artery), and abdominal aorta (to the ileal bifurcation). At the time of isolation, hearts were embedded in optical coherence tomography (OCT) media and frozen to permit quantification of lesion formation by staining of serial cryostat-cut sections of the aortic sinus, if necessary.
Protocol for lipoprotein lipase (LPL): For LPL assays, cells were fed on day 6. On day 7, cells were washed and incubated in DMEM plus 0.5% BSA for 4 hr, followed by incubation with 10 U/ml heparin, collection of media, and subsequent determination of LPL activity as described (Coleman et al., 1995; J. Biol. Chem. 270:12518-12525).
Briefly, lipoprotein lipase (LPL) enzyme activity is determined by measuring the release of labeled fatty acids from a triolein emulsion in macrophages. Cells were fed on day 6. On day 7, cells were washed and incubated in DMEM plu 0.5% BSA for 4 hours, followed by incubation with 10 U/ml heparin, collection of media, and subsequent determination of LPL activity as described by Coleman et al., J. Biol. Chem., 1995, 270:12518-12525. Macrophages from the same sources were used in the assays.

Regarding `CCN(CC)CCCC(C)Nc1ccnc2cc(Cl)ccc12` (stereo not shown) [chloroquine, N4-(7-Chloro-4-quinolinyl)-N1,N1-diethyl-1,4-pentanediamine], in the series with ATM^+/+ apoE^−/− mice, the “decrease of atherosclerosis (lesion area) at the abdominal aorta” value amounted to 25%, the “decrease of atherosclerosis (lesion area) at the arch” value came out at 37% and the “decrease of atherosclerosis (lesion area) at the thoracic aorta” value was found to be 25%. Further, in series [1], the “lowering of systolic pressure” value is recorded as 9 mm Hg. Also, in series [2] (ATM^+/+ apoE^−/− mice, 7 mg/kg/week, 8 weeks Western diet, vs saline), the glucose tolerance result is reported as “improved”. Also, the glucose tolerance result in series [2] (ATM^−/−apoE^−/− mice, Western diet) is “not”. Besides, in [3], the “serum lipids (fasting cholesterol, triglycerides, NEFA)” value is “no effect”. In the series on p53, the “p53 activation in fat and muscle as well as liver, aorta and cultured macrophages” value is on record as “p53 activation”. The “LPL enzyme activity in peritoneal macrophages” value in the series with lipoprotein lipase (LPL) is “decreased”. In addition, the fasting insulin levels in the series with ob/ob mice (7 mg/kg/week, saline 16,810±1,120, P<0.05) is on record as 13,360±1996 pg/ml. The fasting glucose levels result in the series on ob/ob mice (3 weeks after initiation, vs baseline and saline) is listed as “lowered”. Besides, the fed glucose levels entry with ob/ob mice (vs baseline and saline) is given as “lowered”. In the series on db/db mice, the fed glucose levels result is on record as “lowered”. Also, the “increase in glucose infusion rate compared to placebo” value in [4] (80 mg dose, second stage of clamp (insulin 40 mU/m^2/min)) is on record as 23%. Besides, the “increase in glucose infusion rate to maintain the blood glucose” value in [4] (80 mg per day oral, 3 weeks, first stage of clamp (insulin 15 mU/m^2/min), mean of two subjects) was found to be 63%. Besides, in [4] (setting [11]), the “decrease of hepatic glucose production” value was 58% and the “increase of glucose disposal in peripheral tissues” value was determined as 62%. Besides, the “glucose infusion rate effect” value in series [4] (250 mg dose, clamp first and second stage) is recorded as “blunted effect”. In series [5] (setting [12]), the “decrease in LDL cholesterol” value is listed as 25%, the “decrease in total cholesterol” value was determined as 17% and the decrease in triglycerides was found to be 10%. In addition, in [5] (chloroquine 80 mg/day), the “Total Cholesterol” value came to 172 mg/dL, the HDL cholesterol is 47 mg/dL, the LDL cholesterol is 100 mg/dL and the Triglycerides came to 125 mg/dL. In [5] (chloroquine 250 mg/day), the “Total Cholesterol” value came out at 169 mg/dL, the HDL cholesterol amounted to 51 mg/dL, the LDL cholesterol is 99 mg/dL and the Triglycerides came out at 129 mg/dL. Further, the “ambulatory blood pressures (systolic, diastolic, mean arterial)” value in series [6] was “did not appear to be affected”. In series [7], the atherosclerosis result is given as “significantly reduced”, the central adiposity result was “significantly reduced”, the glucose intolerance entry is “significantly reduced” and the hypertension entry was “significantly reduced”. Also, the “cumulative doses with no effects (retinopathy)” value in the series on retina is given as 300 grams. In series [8] (setting [13]), the endogenous glucose production result was “without affecting” and the “insulin resistance in peripheral tissues” value is given as “modestly decreased”. Moreover, in series [8] (1000 mg/day for three days, patients with type 2 diabetes), the “increase in the glucose infusion rate required to maintain euglycemia” value was 13%. Also, the “ATM activation in cultured cells” value on ATM [9] is “activates”. For the same molecule, the ATM activation result on ATM [10] (80 mg/day dose) was “greater activation”. The ATM activation entry on ATM [10] (250 mg/day dose) is “blunted effect”. In addition, the “activation of ATM in monocytes” value at ATM [10] (three weeks of 80 mg/day or 250 mg/day, none with placebo) is given as “activation; also recorded: activated”.
Regarding “anti-ATM: lissamine-tagged Morpholino antisense oligonucleotide against mouse ATM, 5′-GTGCTAGACTCATGGTTTAAGATTT-3′ (SEQ ID NO:6) (all phosphorodiamidate morpholino (PMO); lissamine tag, position not given here)”, the “JNK activity (phospho-JNK normalized to total JNK)” value in the series on JNK is “increased”.
